{
  "source": "patent US11752188B2",
  "about": "“Compositions and methods for nutritional supplements” (DailyColors Health Inc., priority 2020, dated 2023)",
  "molecular_target": "recombinant human Cathepsin S (Homo sapiens, UniProt P25774)",
  "sequence (P25774 115-331)": "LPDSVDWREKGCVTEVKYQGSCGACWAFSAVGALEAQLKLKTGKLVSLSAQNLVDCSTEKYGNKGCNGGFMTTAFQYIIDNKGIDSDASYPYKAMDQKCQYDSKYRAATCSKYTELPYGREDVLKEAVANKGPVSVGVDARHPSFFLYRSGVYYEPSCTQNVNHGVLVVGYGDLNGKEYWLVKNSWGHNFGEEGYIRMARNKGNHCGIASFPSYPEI",
  "assay": "Cathepsin S in vitro enzymatic assay (fluorogenic substrate)",
  "type": "biochemical",
  "protocol": "Assay Conditions: Cathepsin S was activated by diluting the concentrated storage stock into the acidic assay buffer for 30 minutes at room temperature. Then, 5 μl of the sample or reference inhibitor was added to 20 μl of enzyme solution and pre-incubated for 30 minutes. The enzymatic reactions were started by the addition of 25 μl of the fluorogenic substrate, for a total reaction volume of 50 μl. Reaction time was 60 minutes, and then fluorescence intensity at an excitation of 360 nm and an emission of 460 nm was read using a Tecan Infinite M1000 microplate reader.\nData Analysis: Enzyme activity assays were performed in duplicates at each concentration. The fluorescence intensity data were analyzed and compared. In the absence of the compound, the intensity in each data set was defined as 100% (Ce) activity. In the absence of enzyme, the intensity in each data set was defined as 0% (C0) activity. […] Compound fluorescence was removed by subtracting fluorescence at reaction time=0.",
  "data": [
    {"smiles": "CC(C)C[C@H](NC(=O)[C@H]1O[C@@H]1C(=O)O)C(=O)NCCCCN=C(N)N", "note": "[E-64]", "values": [
      {"measurement": "Activity (%) Repeat 1", "setting": "1 nM, Table 35", "value": 98, "unit": "%"},
      {"measurement": "Activity (%) Repeat 2", "setting": "1 nM, Table 35", "value": 95, "unit": "%"},
      {"measurement": "Inhibition (%)", "setting": "1 nM, Table 35", "value": 4, "unit": "%"},
      {"measurement": "Net Signal (Fluorescence counts) Repeat 1", "setting": "1 nM, Table 35", "value": 9894, "unit": "Fluorescence counts"},
      {"measurement": "Net Signal (Fluorescence counts) Repeat 2", "setting": "1 nM, Table 35", "value": 9604, "unit": "Fluorescence counts"},
      {"measurement": "Activity (%) Repeat 1", "setting": "1 nM, Table 36", "value": 99, "unit": "%"},
      {"measurement": "Activity (%) Repeat 2", "setting": "1 nM, Table 36", "value": 100, "unit": "%"},
      {"measurement": "Inhibition (%)", "setting": "1 nM, Table 36", "value": 1, "unit": "%"},
      {"measurement": "Net Signal (Fluorescence counts) Repeat 1", "setting": "1 nM, Table 36", "value": 8864, "unit": "Fluorescence counts"},
      {"measurement": "Net Signal (Fluorescence counts) Repeat 2", "setting": "1 nM, Table 36", "value": 8931, "unit": "Fluorescence counts"},
      {"measurement": "Activity (%) Repeat 1", "setting": "0.001 μM, Table 37", "value": 88, "unit": "%"},
      {"measurement": "Activity (%) Repeat 2", "setting": "0.001 μM, Table 37", "value": 83, "unit": "%"},
      {"measurement": "Inhibition (%)", "setting": "0.001 μM, Table 37", "value": 15, "unit": "%"},
      {"measurement": "Net Signal (Fluorescence counts) Repeat 1", "setting": "0.001 μM, Table 37", "value": 52418, "unit": "Fluorescence counts"},
      {"measurement": "Net Signal (Fluorescence counts) Repeat 2", "setting": "0.001 μM, Table 37", "value": 49644, "unit": "Fluorescence counts"},
      {"measurement": "Activity (%) Repeat 1", "setting": "10 nM, Table 35", "value": 51, "unit": "%"},
      {"measurement": "Activity (%) Repeat 2", "setting": "10 nM, Table 35", "value": 54, "unit": "%"},
      {"measurement": "Inhibition (%)", "setting": "10 nM, Table 35", "value": 48, "unit": "%"},
      {"measurement": "Net Signal (Fluorescence counts) Repeat 1", "setting": "10 nM, Table 35", "value": 5170, "unit": "Fluorescence counts"},
      {"measurement": "Net Signal (Fluorescence counts) Repeat 2", "setting": "10 nM, Table 35", "value": 5444, "unit": "Fluorescence counts"},
      {"measurement": "Activity (%) Repeat 1", "setting": "10 nM, Table 36", "value": 64, "unit": "%"},
      {"measurement": "Activity (%) Repeat 2", "setting": "10 nM, Table 36", "value": 59, "unit": "%"},
      {"measurement": "Inhibition (%)", "setting": "10 nM, Table 36", "value": 38, "unit": "%"},
      {"measurement": "Net Signal (Fluorescence counts) Repeat 1", "setting": "10 nM, Table 36", "value": 5727, "unit": "Fluorescence counts"},
      {"measurement": "Net Signal (Fluorescence counts) Repeat 2", "setting": "10 nM, Table 36", "value": 5326, "unit": "Fluorescence counts"},
      {"measurement": "Activity (%) Repeat 1", "setting": "0.01 μM, Table 37", "value": 36, "unit": "%"},
      {"measurement": "Activity (%) Repeat 2", "setting": "0.01 μM, Table 37", "value": 33, "unit": "%"},
      {"measurement": "Inhibition (%)", "setting": "0.01 μM, Table 37", "value": 66, "unit": "%"},
      {"measurement": "Net Signal (Fluorescence counts) Repeat 1", "setting": "0.01 μM, Table 37", "value": 21262, "unit": "Fluorescence counts"},
      {"measurement": "Net Signal (Fluorescence counts) Repeat 2", "setting": "0.01 μM, Table 37", "value": 19656, "unit": "Fluorescence counts"},
      {"measurement": "Activity (%) Repeat 1", "setting": "0.1 μM, Table 37", "value": 5, "unit": "%"},
      {"measurement": "Activity (%) Repeat 2", "setting": "0.1 μM, Table 37", "value": 6, "unit": "%"},
      {"measurement": "Inhibition (%)", "setting": "0.1 μM, Table 37", "value": 95, "unit": "%"},
      {"measurement": "Net Signal (Fluorescence counts) Repeat 1", "setting": "0.1 μM, Table 37", "value": 3091, "unit": "Fluorescence counts"},
      {"measurement": "Net Signal (Fluorescence counts) Repeat 2", "setting": "0.1 μM, Table 37", "value": 3478, "unit": "Fluorescence counts"},
      {"measurement": "Activity (%) Repeat 1", "setting": "100 nM, Table 35", "value": 9, "unit": "%"},
      {"measurement": "Activity (%) Repeat 2", "setting": "100 nM, Table 35", "value": 9, "unit": "%"},
      {"measurement": "Inhibition (%)", "setting": "100 nM, Table 35", "value": 91, "unit": "%"},
      {"measurement": "Net Signal (Fluorescence counts) Repeat 1", "setting": "100 nM, Table 35", "value": 958, "unit": "Fluorescence counts"},
      {"measurement": "Net Signal (Fluorescence counts) Repeat 2", "setting": "100 nM, Table 35", "value": 960, "unit": "Fluorescence counts"},
      {"measurement": "Activity (%) Repeat 1", "setting": "100 nM, Table 36", "value": 11, "unit": "%"},
      {"measurement": "Activity (%) Repeat 2", "setting": "100 nM, Table 36", "value": 12, "unit": "%"},
      {"measurement": "Inhibition (%)", "setting": "100 nM, Table 36", "value": 89, "unit": "%"},
      {"measurement": "Net Signal (Fluorescence counts) Repeat 1", "setting": "100 nM, Table 36", "value": 1009, "unit": "Fluorescence counts"},
      {"measurement": "Net Signal (Fluorescence counts) Repeat 2", "setting": "100 nM, Table 36", "value": 1033, "unit": "Fluorescence counts"}
    ]}
  ]
}
